Data reported in ChEMBL document CHEMBL3638431, “2-PYRIDYLOXY-4-NITRILE OREXIN RECEPTOR ANTAGONISTS” (2013).

Legend:
Orexin receptor type 2 = target: T1, Orexin receptor type 2 (Homo sapiens, UniProt O43614); assay: (§1) Radioligand Binding Assay: The inhibition constant (Ki) is determined using a radioligand binding assay (described in Bergman et. al. Bioorg. Med. Chem. Lett. 2008, 18, 1425-1430).
T1 sequence (O43614 whole entry): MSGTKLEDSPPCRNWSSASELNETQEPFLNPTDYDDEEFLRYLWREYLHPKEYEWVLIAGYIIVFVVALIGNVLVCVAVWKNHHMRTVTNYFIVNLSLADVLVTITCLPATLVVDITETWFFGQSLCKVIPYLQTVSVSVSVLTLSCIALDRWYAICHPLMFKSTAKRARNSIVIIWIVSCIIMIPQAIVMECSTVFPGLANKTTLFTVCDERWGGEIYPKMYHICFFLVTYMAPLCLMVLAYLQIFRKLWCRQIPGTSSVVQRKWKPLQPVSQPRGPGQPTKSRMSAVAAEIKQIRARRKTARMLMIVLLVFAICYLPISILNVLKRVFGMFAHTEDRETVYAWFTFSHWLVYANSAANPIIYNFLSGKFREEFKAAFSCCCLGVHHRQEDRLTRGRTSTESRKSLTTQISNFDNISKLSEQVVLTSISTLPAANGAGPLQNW

[1] = target: T2, Orexin/Hypocretin receptor type 1 (Homo sapiens, UniProt O43613); assay: as §1
T2 sequence (O43613 whole entry): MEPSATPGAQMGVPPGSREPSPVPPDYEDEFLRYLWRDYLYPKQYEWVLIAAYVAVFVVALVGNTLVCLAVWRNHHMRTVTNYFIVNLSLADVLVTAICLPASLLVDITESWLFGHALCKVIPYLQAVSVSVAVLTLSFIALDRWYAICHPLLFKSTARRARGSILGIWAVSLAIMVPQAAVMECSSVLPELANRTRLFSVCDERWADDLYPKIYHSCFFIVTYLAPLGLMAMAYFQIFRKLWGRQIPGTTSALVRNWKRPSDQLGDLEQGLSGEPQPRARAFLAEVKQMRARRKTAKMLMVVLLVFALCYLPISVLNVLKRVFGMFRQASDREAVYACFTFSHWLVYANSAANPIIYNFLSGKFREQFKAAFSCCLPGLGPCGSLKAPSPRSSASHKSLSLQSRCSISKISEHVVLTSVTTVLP

[2] = target: T3, Orexin/Hypocretin receptor type 1 (Rattus norvegicus, UniProt P56718); assay: FLIPR Ca2+ Flux Assay: Chinese hamster ovary (CHO) cells expressing the rat orexin-1 receptor or the human orexin-2 receptor, are grown in Iscove's modified DMEM containing 2 mM L-glutamine, […], 1% hypoxanthine-thymidine supplement, 100 U/ml penicillin, 100 ug/ml streptomycin and 10% heat-inactivated fetal calf serum (FCS). The cells are seeded at 20,000 cells/well into Becton-Dickinson black 384-well clear bottom sterile plates coated with poly-D-lysine. All reagents were from GIBCO-Invitrogen Corp. The seeded plates are incubated overnight at 37° C. and 5% CO2. Ala-6,12 human orexin-A as the agonist is prepared as a 1 mM stock solution in 1% bovine serum albumin (BSA) and diluted in assay buffer (HBSS containing 20 mM HEPES, 0.1% BSA and 2.5 mM probenecid, pH7.4) for use in the assay at a final concentration of 70 pM. Test compounds are prepared as 10 mM stock solution in DMSO, then diluted in 384-well plates, first in DMSO, then assay buffer. On the day of the assay, cells are washed 3 times with 100 ul assay buffer and then incubated for 60 min (37° C., 5% CO2) in 60 ul assay buffer containing 1 uM Fluo-4AM ester, 0.02% pluronic acid, and 1% BSA. The dye loading solution is then aspirated and cells are washed 3 times with 100 ul assay buffer. 30 ul of that same buffer is left in each well. Within the Fluorescent Imaging Plate Reader (FLIPR, Molecular Devices), test compounds are added to the plate in a volume of 25 ul, incubated for 5 min and finally 25 ul of agonist is added. Fluorescence is measured for each well at 1 second intervals for 5 minutes and the height of each fluorescence peak is compared to the height of the fluorescence peak induced by 70 pM Ala-6,12 orexin-A with buffer in place of antagonist.; assay type: functional
T3 sequence (P56718 whole entry): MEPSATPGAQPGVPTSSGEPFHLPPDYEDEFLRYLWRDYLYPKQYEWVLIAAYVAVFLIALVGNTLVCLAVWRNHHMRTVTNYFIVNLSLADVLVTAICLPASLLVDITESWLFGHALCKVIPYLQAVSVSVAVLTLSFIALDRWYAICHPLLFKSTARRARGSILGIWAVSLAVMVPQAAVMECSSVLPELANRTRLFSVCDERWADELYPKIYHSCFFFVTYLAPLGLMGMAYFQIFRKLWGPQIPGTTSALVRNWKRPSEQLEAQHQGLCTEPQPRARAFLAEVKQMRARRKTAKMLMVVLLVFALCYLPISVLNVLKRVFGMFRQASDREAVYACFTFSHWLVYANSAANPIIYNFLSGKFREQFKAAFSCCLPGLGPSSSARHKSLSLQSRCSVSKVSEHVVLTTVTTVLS

Structure (SMILES)	Ki (Orexin receptor type 2) [nM]	Ki [1] [nM]	IC50 [2] [nM]
C[C@@H]1CC[C@@H](Oc2cc(C#N)ccn2)CN1C(=O)c1ccccc1-n1nccn1	1.6	813	3650
Cc1nc(-c2ccccc2C(=O)N2C[C@H](Oc3cc(C#N)ccn3)CC[C@H]2C)no1	4.5	1660	> 10000
C[C@@H]1CC[C@@H](Oc2cc(C#N)ccn2)CN1C(=O)c1ccccc1-c1ncccn1	1.3	761	4870
C[C@@H]1CC[C@@H](Oc2cc(C#N)ccn2)CN1C(=O)c1ccc(C#N)cc1-n1nccn1	1360	34500	
